Laboratory results published in ChEMBL document CHEMBL1201862, “PubChem BioAssay data set” (2004).
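Method: 48-hour compound exposure of cells in 96-well plates, five concentrations, linear interpolation of endpoints. GI50: concentration for 50% inhibition of growth.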 Calls of active or inactive are those of the source. Rule as the data show it: active = GI50 up to about 1.1 µM and inactive = higher.

Tests used:
Experiment in all cases: growth of human tumour cells (NCI), 48 h
HL-60 = test system: HL-60
NCI-H460 = test system: NCI-H460
SF-295 = test system: SF-295
NCI-H226 = test system: NCI-H226
ACHN = test system: ACHN
HCT-116 = test system: HCT-116
UACC-257 = test system: UACC-257
MDA-MB-435 = test system: MDA-MB-435
COLO 205 = test system: COLO 205
MOLT-4 = test system: MOLT-4
BT-549 = test system: BT-549
SF-539 = test system: SF-539
A498 = test system: A498
HCT-15 = test system: HCT-15
DU-145 = test system: DU-145
EKVX = test system: EKVX
SK-MEL-28 = test system: SK-MEL-28
OVCAR-3 = test system: OVCAR-3
HOP-62 = test system: HOP-62
OVCAR-4 = test system: OVCAR-4
NCI-H522 = test system: NCI-H522
NCI-H23 = test system: NCI-H23
786-0 = test system: 786-0
OVCAR-5 = test system: OVCAR-5
MCF7 = test system: MCF7
RPMI-8226 = test system: RPMI-8226
IGROV-1 = test system: IGROV-1
MDA-N = test system: MDA-N
CCRF-CEM = test system: CCRF-CEM
SW-620 = test system: SW-620
HOP-92 = test system: HOP-92
Malme-3M = test system: Malme-3M
SNB-75 = test system: SNB-75
HT-29 = test system: HT-29
SN12C = test system: SN12C
OVCAR-8 = test system: OVCAR-8
K562 = test system: K562
SF-268 = test system: SF-268
U-251 = test system: U-251
T47D = test system: T47D
KM12 = test system: KM12
SK-MEL-5 = test system: SK-MEL-5
RXF 393 = test system: RXF 393
MDA-MB-231 = test system: MDA-MB-231
HCC 2998 = test system: HCC 2998
SR = test system: SR
A549 = test system: A549
SNB-19 = test system: SNB-19
UO-31 = test system: UO-31
M14 = test system: M14
NCI/ADR-RES = test system: NCI/ADR-RES
CAKI-1 = test system: CAKI-1
LOX IMVI = test system: LOX IMVI
Hs-578T = test system: Hs-578T
TK-10 = test system: TK-10
PC-3 = test system: PC-3
UACC-62 = test system: UACC-62
SK-OV-3 = test system: SK-OV-3
SK-MEL-2 = test system: SK-MEL-2

Measured: GI50

CCOc1c(OC)cc(CNNc2nccs2)cc1OC
inactive: HL-60 13.4 µM | NCI-H460 27 µM | SF-295 > 100 µM | NCI-H226 > 100 µM | ACHN > 100 µM | HCT-116 > 100 µM | UACC-257 20.1 µM | MDA-MB-435 54.2 µM | COLO 205 51.4 µM | MOLT-4 28.6 µM | BT-549 41.5 µM | SF-539 > 100 µM | A498 > 100 µM | DU-145 15 µM | EKVX 19.3 µM | SK-MEL-28 > 100 µM | OVCAR-3 > 100 µM | HOP-62 > 100 µM | OVCAR-4 > 100 µM | NCI-H522 52.6 µM | NCI-H23 62.4 µM | 786-0 > 100 µM | OVCAR-5 4.57 µM | MCF7 > 100 µM | RPMI-8226 7.03 µM | IGROV-1 > 100 µM | MDA-N > 100 µM | CCRF-CEM > 100 µM | SW-620 > 100 µM | HOP-92 67.6 µM | Malme-3M 82.2 µM | SNB-75 34.8 µM | HT-29 > 100 µM | SN12C > 100 µM | OVCAR-8 > 100 µM | K562 24 µM | SF-268 > 100 µM | U-251 32.7 µM | T47D 11.7 µM | KM12 > 100 µM | SK-MEL-5 12.9 µM | RXF 393 > 100 µM | MDA-MB-231 94.2 µM | HCC 2998 > 100 µM | SR 29.5 µM | A549 60 µM | SNB-19 > 100 µM | UO-31 71.9 µM | M14 42.1 µM | NCI/ADR-RES 70.6 µM | CAKI-1 > 100 µM | LOX IMVI 47.2 µM | Hs-578T > 100 µM | TK-10 > 100 µM | PC-3 41.9 µM
28 µM: HCT-15

Nc1ccc(-c2ncc3cc(-c4cccc(-c5cc6cnc(-c7ccc(N)cc7)nc6c6ccccc56)c4)c4ccccc4c3n2)cc1
inactive: NCI-H460 > 100 µM | SF-295 > 100 µM | NCI-H226 > 100 µM | ACHN > 100 µM | HCT-116 > 100 µM | UACC-257 > 100 µM | MDA-MB-435 > 100 µM | COLO 205 35.3 µM | MOLT-4 > 100 µM | BT-549 > 100 µM | SF-539 > 100 µM | A498 > 100 µM | DU-145 > 100 µM | EKVX > 100 µM | SK-MEL-28 > 100 µM | OVCAR-3 > 100 µM | HOP-62 > 100 µM | UACC-62 > 100 µM | NCI-H522 > 100 µM | SK-OV-3 > 100 µM | NCI-H23 > 100 µM | 786-0 > 100 µM | OVCAR-5 > 100 µM | MCF7 > 100 µM | RPMI-8226 > 100 µM | IGROV-1 > 100 µM | MDA-N > 100 µM | CCRF-CEM > 100 µM | SW-620 > 100 µM | HOP-92 > 100 µM | SNB-75 > 100 µM | HT-29 > 100 µM | SN12C > 100 µM | OVCAR-8 > 100 µM | K562 > 100 µM | SF-268 > 100 µM | SK-MEL-2 > 100 µM | U-251 > 100 µM | T47D > 100 µM | KM12 > 100 µM | SK-MEL-5 34.5 µM | RXF 393 > 100 µM | MDA-MB-231 > 100 µM | HCC 2998 > 100 µM | SR > 100 µM | A549 > 100 µM | SNB-19 > 100 µM | UO-31 > 100 µM | M14 60.1 µM | NCI/ADR-RES > 100 µM | CAKI-1 > 100 µM | LOX IMVI > 100 µM | Hs-578T > 100 µM | TK-10 > 100 µM | PC-3 > 100 µM
> 100 µM: HCT-15

CN(C)CCCc1cccnc1
inactive: HL-60 > 100 µM | NCI-H460 > 100 µM | SF-295 > 100 µM | NCI-H226 > 100 µM | ACHN > 100 µM | HCT-116 > 100 µM | UACC-257 > 100 µM | MDA-MB-435 > 100 µM | COLO 205 > 100 µM | BT-549 > 100 µM | A498 > 100 µM | DU-145 > 100 µM | EKVX > 100 µM | SK-MEL-28 > 100 µM | OVCAR-3 > 100 µM | HOP-62 > 100 µM | UACC-62 > 100 µM | OVCAR-4 > 100 µM | NCI-H522 > 100 µM | SK-OV-3 > 100 µM | NCI-H23 > 100 µM | 786-0 > 100 µM | OVCAR-5 > 100 µM | MCF7 > 100 µM | RPMI-8226 > 100 µM | IGROV-1 > 100 µM | MDA-N > 100 µM | CCRF-CEM > 100 µM | SW-620 > 100 µM | HOP-92 > 100 µM | Malme-3M > 100 µM | SNB-75 41.7 µM | HT-29 > 100 µM | SN12C > 100 µM | OVCAR-8 > 100 µM | K562 > 100 µM | SF-268 > 100 µM | SK-MEL-2 > 100 µM | U-251 > 100 µM | T47D > 100 µM | KM12 > 100 µM | SK-MEL-5 > 100 µM | RXF 393 > 100 µM | MDA-MB-231 > 100 µM | HCC 2998 > 100 µM | SR > 100 µM | A549 > 100 µM | SNB-19 > 100 µM | UO-31 > 100 µM | M14 > 100 µM | NCI/ADR-RES > 100 µM | CAKI-1 > 100 µM | LOX IMVI > 100 µM | Hs-578T > 100 µM | TK-10 > 100 µM | PC-3 > 100 µM
> 100 µM: HCT-15

Nc1cccc(C#Cc2cccc(C#Cc3cccc(N)n3)n2)n1
> 100 µM: HCT-15
inactive: NCI-H460 37.2 µM | SF-295 66.7 µM | NCI-H226 > 100 µM | ACHN > 100 µM | HCT-116 > 100 µM | UACC-257 > 100 µM | MDA-MB-435 89.9 µM | COLO 205 > 100 µM | MOLT-4 32.8 µM | BT-549 > 100 µM | SF-539 39.9 µM | A498 > 100 µM | DU-145 > 100 µM | EKVX > 100 µM | OVCAR-3 > 100 µM | HOP-62 > 100 µM | UACC-62 > 100 µM | OVCAR-4 > 100 µM | NCI-H522 > 100 µM | SK-OV-3 > 100 µM | NCI-H23 > 100 µM | 786-0 55.6 µM | OVCAR-5 > 100 µM | MCF7 > 100 µM | RPMI-8226 91 µM | IGROV-1 69.5 µM | MDA-N 79.3 µM | CCRF-CEM 5.85 µM | SW-620 > 100 µM | HOP-92 > 100 µM | SNB-75 > 100 µM | SN12C 79.3 µM | OVCAR-8 > 100 µM | K562 > 100 µM | SF-268 > 100 µM | SK-MEL-2 > 100 µM | U-251 > 100 µM | T47D 76.9 µM | KM12 > 100 µM | SK-MEL-5 47.4 µM | RXF 393 > 100 µM | MDA-MB-231 > 100 µM | HCC 2998 > 100 µM | SR 14 µM | SNB-19 > 100 µM | UO-31 > 100 µM | M14 > 100 µM | NCI/ADR-RES > 100 µM | CAKI-1 > 100 µM | LOX IMVI > 100 µM | Hs-578T > 100 µM | TK-10 > 100 µM | PC-3 > 100 µM

O=[N+]([O-])c1ccc(Cl)c(CNc2ncnc3c2ncn3C2CCCCO2)c1 (centres undefined)
33.9 µM: HCT-15
inactive: HL-60 26.8 µM | NCI-H460 15.3 µM | SF-295 52 µM | NCI-H226 43.2 µM | ACHN 44.9 µM | HCT-116 43.2 µM | MDA-MB-435 13.9 µM | COLO 205 42.2 µM | MOLT-4 26.1 µM | BT-549 41.2 µM | SF-539 22.8 µM | A498 12.4 µM | DU-145 29.1 µM | EKVX 77.1 µM | SK-MEL-28 89.5 µM | OVCAR-3 34.3 µM | HOP-62 48.4 µM | UACC-62 22.8 µM | OVCAR-4 54.1 µM | NCI-H522 32.8 µM | SK-OV-3 36.5 µM | NCI-H23 31.8 µM | 786-0 63.8 µM | OVCAR-5 > 100 µM | MCF7 17.1 µM | RPMI-8226 38.6 µM | IGROV-1 58.2 µM | MDA-N 12.7 µM | SW-620 35 µM | HOP-92 42.3 µM | Malme-3M 64.9 µM | SNB-75 43.6 µM | HT-29 32.4 µM | SN12C 29.6 µM | OVCAR-8 53.6 µM | K562 31.4 µM | SF-268 97.9 µM | SK-MEL-2 28.5 µM | U-251 32.5 µM | T47D 55.3 µM | KM12 66.7 µM | SK-MEL-5 21.7 µM | RXF 393 14.9 µM | MDA-MB-231 32.9 µM | SR 18.5 µM | A549 41.7 µM | SNB-19 61.1 µM | UO-31 22 µM | M14 28.2 µM | NCI/ADR-RES 25.1 µM | CAKI-1 > 100 µM | LOX IMVI 56.4 µM | Hs-578T > 100 µM | TK-10 31 µM | PC-3 39.3 µM
